Reference: PubChem BioAssay AID330 (DTP/NCI, 2004)
Where “and” joins values, the source holds several entries; their conditions need not be identical. Equal entries are not always repeated. Toxic doses and inconclusive results are not listed.

Tested on: P388 leukemia ip, CD2F1 mice, survival T/C
Test: NCI In Vivo Anticancer Drug Screen. Data for tumor model P388 Leukemia (intraperitoneal) in CD2F1 (CDF1) mice
Settings: endpoint: median survival time, higher = longer survival
In short: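 Mice carrying the transplanted tumor received test compound or vehicle. Survival was recorded in each group, and the value is the treated-group measurement divided by that of the vehicle-treated control group.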

[1] = dose: 50.0 mg/kg/injection, schedule: Q01DX005 (ip), vehicle: Klucel (hydroxypropylcellulose) (HPC)
[2] = dose: 100.0 mg/kg/injection, schedule: Q01DX005 (ip), vehicle: Klucel (hydroxypropylcellulose) (HPC)
[3] = dose: 200.0 mg/kg/injection, schedule: Q01DX005 (ip), vehicle: Klucel (hydroxypropylcellulose) (HPC)
[4] = dose: 60.0 mg/kg/injection, schedule: Q01DX005 (ip), vehicle: Klucel (hydroxypropylcellulose) (HPC)
[5] = dose: 120.0 mg/kg/injection, schedule: Q01DX005 (ip), vehicle: Klucel (hydroxypropylcellulose) (HPC)
[6] = dose: 240.0 mg/kg/injection, schedule: Q01DX005 (ip), vehicle: Klucel (hydroxypropylcellulose) (HPC)
[7] = dose: 25.0 mg/kg/injection, schedule: Q01DX009 (ip), vehicle: saline with Tween-80
[8] = dose: 50.0 mg/kg/injection, schedule: Q01DX009 (ip), vehicle: saline with Tween-80
[9] = dose: 100.0 mg/kg/injection, schedule: Q01DX009 (ip), vehicle: saline with Tween-80
[10] = dose: 50.0 mg/kg/injection, schedule: Q01DX009 (ip), vehicle: Klucel (hydroxypropylcellulose) (HPC)
[11] = dose: 100.0 mg/kg/injection, schedule: Q01DX009 (ip), vehicle: Klucel (hydroxypropylcellulose) (HPC)
[12] = dose: 200.0 mg/kg/injection, schedule: Q01DX009 (ip), vehicle: Klucel (hydroxypropylcellulose) (HPC)
[13] = dose: 100.0 mg/kg/injection, schedule: Q04DX003 (ip), vehicle: saline with Tween-80

NS(=O)(=O)c1cc([N+](=O)[O-])c(SSc2sc(S(N)(=O)=O)cc2[N+](=O)[O-])s1
T/C (dose: 25.0 mg/kg/injection, schedule: Q04DX003 (ip), vehicle: Klucel (hydroxypropylcellulose) (HPC)): 104 % of control
T/C (dose: 50.0 mg/kg/injection, schedule: Q04DX003 (ip), vehicle: Klucel (hydroxypropylcellulose) (HPC)): 101 % of control
T/C (dose: 100.0 mg/kg/injection, schedule: Q01DX001 (ip), vehicle: Klucel (hydroxypropylcellulose) (HPC)): 106 % of control
T/C (dose: 100.0 mg/kg/injection, schedule: Q04DX003 (ip), vehicle: Klucel (hydroxypropylcellulose) (HPC)): 107 % of control
T/C (dose: 200.0 mg/kg/injection, schedule: Q01DX001 (ip), vehicle: Klucel (hydroxypropylcellulose) (HPC)): 99 % of control

COc1ccc(C=NCCC[Si]23OCCN(CCO2)CCO3)c(OC)c1OC
T/C [1]: 98 % of control
T/C [2]: 94 % of control
T/C [3]: 103 % of control

COc1ccc2cc3[n+](cc2c1OC)CCc1cc2c(cc1-3)OCO2
T/C (dose: 1.25 mg/kg/injection, schedule: Q01DX009 (ip), vehicle: water): 99 % of control and 110 % of control
T/C (dose: 2.5 mg/kg/injection, schedule: Q01DX009 (ip), vehicle: water): 105 % of control
T/C (dose: 3.13 mg/kg/injection, schedule: Q01DX009 (ip), vehicle: Klucel (hydroxypropylcellulose) (HPC)): 95 % of control
T/C (dose: 5.0 mg/kg/injection, schedule: Q01DX009 (ip), vehicle: water): 110 % of control and 119 % of control
T/C (dose: 6.25 mg/kg/injection, schedule: Q01DX009 (ip), vehicle: Klucel (hydroxypropylcellulose) (HPC)): 107 % of control
T/C (dose: 10.0 mg/kg/injection, schedule: Q01DX009 (ip), vehicle: water): 110 % of control
T/C (dose: 12.5 mg/kg/injection, schedule: Q01DX009 (ip), vehicle: Klucel (hydroxypropylcellulose) (HPC)): 109 % of control
T/C (dose: 20.0 mg/kg/injection, schedule: Q01DX009 (ip), vehicle: water): 119 % of control

CCOC(=O)c1cnc2cc(F)ccc2c1Nc1ccc2c(c1)OCO2
T/C [4]: 99 % of control
T/C [5]: 97 % of control
T/C [6]: 105 % of control

CSc1ncnc2c1ncn2C1OC(CO)C(O)C1O (stereo unspecified)
T/C (dose: 2.0 mg/kg/injection, schedule: Q01DX010 (ip), vehicle: saline): 107 % of control
T/C (dose: 4.0 mg/kg/injection, schedule: Q01DX010 (ip), vehicle: saline): 102 % of control and 104 % of control
T/C (dose: 8.0 mg/kg/injection, schedule: Q01DX010 (ip), vehicle: saline): 100 % of control and 116 % of control
T/C (dose: 16.0 mg/kg/injection, schedule: Q01DX010 (ip), vehicle: saline): 109 % of control and 120 % of control
T/C [7]: 95 % of control
T/C [8]: 93 % of control
T/C (dose: 54.0 mg/kg/injection, schedule: Q01DX001 (ip), vehicle: saline): 111 % of control
T/C (dose: 82.0 mg/kg/injection, schedule: Q01DX001 (ip), vehicle: saline): 117 % of control and 118 % of control
T/C [9]: 104 % of control
T/C (dose: 200.0 mg/kg/injection, schedule: Q01DX009 (ip), vehicle: saline with Tween-80): 101 % of control

O=C1NC(=O)C2CCCCC12 (stereo unspecified)
T/C (dose: 12.5 mg/kg/injection, schedule: Q01DX009 (ip), vehicle: saline with Tween-80): 109 % of control
T/C [7]: 102 % of control
T/C [8]: 100 % of control
T/C [9]: 100 % of control

NC(=O)NCCSc1ccc(SCCNC(N)=O)nn1
T/C [10]: 109 % of control
T/C [11]: 100 % of control
T/C [12]: 98 % of control
T/C (dose: 400.0 mg/kg/injection, schedule: Q01DX009 (ip), vehicle: Klucel (hydroxypropylcellulose) (HPC)): 90 % of control

O=[N+]([O-])O.O=[N+]([O-])O.[NH-]C(c1ccccc1)C([NH-])c1ccccc1.[Pt+2] (stereo unspecified)
T/C (dose: 6.25 mg/kg/injection, schedule: Q04DX002 (ip), vehicle: saline): 161 % of control
T/C (dose: 12.5 mg/kg/injection, schedule: Q04DX002 (ip), vehicle: saline): 154 % of control
T/C (dose: 25.0 mg/kg/injection, schedule: Q04DX002 (ip), vehicle: saline): 154 % of control

N#Cc1ncnc2nc[nH]c12
T/C [1]: 101 % of control
T/C [2]: 107 % of control

CCOC(=O)CCC(NC(=O)c1ccc(I)cc1)C(=O)OCC (stereo unspecified)
T/C [10]: 100 % of control
T/C [11]: 93 % of control
T/C [12]: 102 % of control

Cc1cccc[c]1[Sn]([Cl])([O][Sn]([Cl])([c]1ccccc1C)[c]1ccccc1C)[c]1ccccc1C
T/C (dose: 0.19 mg/kg/injection, schedule: Q01DX005 (ip), vehicle: saline): 110 % of control
T/C (dose: 0.39 mg/kg/injection, schedule: Q01DX005 (ip), vehicle: saline): 114 % of control
T/C (dose: 1.56 mg/kg/injection, schedule: Q01DX005 (ip), vehicle: saline): 124 % of control

S=C(N/N=C\c1c[nH]c2ccc(Br)cc12)NC12CC3CC(CC(C3)C1)C2
T/C [4]: 98 % of control
T/C [5]: 93 % of control
T/C [6]: 98 % of control

CCCC(O)C(C(=O)OCC)C(=O)OCC (stereo unspecified)
T/C (dose: 50.0 mg/kg/injection, schedule: Q01DX009 (ip), vehicle: saline): 95 % of control
T/C (dose: 100.0 mg/kg/injection, schedule: Q01DX009 (ip), vehicle: saline): 95 % of control
T/C (dose: 200.0 mg/kg/injection, schedule: Q01DX009 (ip), vehicle: saline): 94 % of control

O=C(O)C(=O)O.O=C([O-])C(=O)O.O=C([O-])C(=O)O.[Fe+3].[K+]
T/C (dose: 30.0 mg/kg/injection, schedule: Q01DX005 (ip), vehicle: saline): 100 % of control
T/C (dose: 60.0 mg/kg/injection, schedule: Q01DX005 (ip), vehicle: saline): 99 % of control

CC(CC(=O)c1ccccc1)=NCCCCN=C(C)CC(=O)c1ccccc1
T/C (dose: 25.0 mg/kg/injection, schedule: Q04DX002 (ip), vehicle: saline with Tween-80): 104 % of control
T/C (dose: 25.0 mg/kg/injection, schedule: Q04DX003 (ip), vehicle: saline with Tween-80): 101 % of control
T/C (dose: 50.0 mg/kg/injection, schedule: Q01DX005 (ip), vehicle: saline with Tween-80): 91 % of control
T/C (dose: 50.0 mg/kg/injection, schedule: Q04DX002 (ip), vehicle: saline with Tween-80): 96 % of control
T/C (dose: 50.0 mg/kg/injection, schedule: Q04DX003 (ip), vehicle: saline with Tween-80): 95 % of control
T/C (dose: 100.0 mg/kg/injection, schedule: Q01DX005 (ip), vehicle: saline with Tween-80): 95 % of control
T/C (dose: 100.0 mg/kg/injection, schedule: Q04DX002 (ip), vehicle: saline with Tween-80): 105 % of control
T/C [13]: 92 % of control
T/C (dose: 200.0 mg/kg/injection, schedule: Q01DX005 (ip), vehicle: saline with Tween-80): 88 % of control
T/C (dose: 200.0 mg/kg/injection, schedule: Q04DX002 (ip), vehicle: saline with Tween-80): 98 % of control

Cc1ccc2c(c1Oc1ccc(S(N)(=O)=O)cc1)C(=O)c1ccccc1C2=O
T/C [13]: 100 % of control
T/C (dose: 200.0 mg/kg/injection, schedule: Q04DX003 (ip), vehicle: saline with Tween-80): 100 % of control
T/C (dose: 400.0 mg/kg/injection, schedule: Q04DX003 (ip), vehicle: saline with Tween-80): 95 % of control

COc1cccc2c1C(=O)c1c(O)c3c(c(O)c1C2=O)CC(O)(C(=O)CO)CC3OC1CC(N(Cc2ccccc2)Cc2ccccc2)C(O)C(C)O1 (stereo unspecified)
T/C (dose: 0.2 mg/kg/injection, schedule: Q01DX009 (ip), vehicle: water): 115 % of control
T/C (dose: 1.56 mg/kg/injection, schedule: Q01DX009 (ip), vehicle: water): 151 % of control
T/C (dose: 3.13 mg/kg/injection, schedule: Q01DX009 (ip), vehicle: water): 156 % of control
T/C (dose: 6.25 mg/kg/injection, schedule: Q01DX009 (ip), vehicle: water): 175 % of control

Cc1ccc2c(c1)C(=O)c1cc3c(cc1C2=O)OCO3
T/C (dose: 60.0 mg/kg/injection, schedule: Q01DX005 (ip), vehicle: saline with Tween-80): 87 % of control
T/C (dose: 120.0 mg/kg/injection, schedule: Q01DX005 (ip), vehicle: saline with Tween-80): 91 % of control
T/C (dose: 240.0 mg/kg/injection, schedule: Q01DX005 (ip), vehicle: saline with Tween-80): 89 % of control and 91 % of control

CCN(CC)c1ccc2c(c1)Oc1cc(N(CC)CC)ccc1C21c2ccccc2C(=O)N1c1ccccc1
T/C [1]: 98 % of control
T/C [2]: 99 % of control
T/C [3]: 103 % of control

CN1c2ccccc2C(=O)Nc2cnc(Cl)nc21
T/C (dose: 25.0 mg/kg/injection, schedule: Q01DX005 (ip), vehicle: Klucel (hydroxypropylcellulose) (HPC)): 94 % of control
T/C [1]: 108 % of control
